pIC50: −log10 of the molar value.
What was measured:
[1] = target: T1, HCV polymerase (NS5B570n-Con1) (Hepatitis C virus genotype 1b, UniProt Q9WMX2); test: HCV NS5B RNA polymerase activity assay; assay type: biochemical, HCV Con1 strain
T1 construct: contains a 21 amino acid deletion at the C-terminus relative to the full-length HCV polymerase; 6-histidine (N); made in house; host or cells: E. coli BL21(DE) pLysS, plasmid pET17b
Procedure: The enzymatic activity of HCV polymerase (NS5B570n-Con1) was measured as the incorporation of radiolabeled nucleotide monophosphates into acid insoluble RNA products. Unincorporated radiolabeled substrate was removed by filtration and scintillant was added to the washed and dried filter plate containing radiolabeled RNA product. The amount of RNA product generated by NS5B570-Con1 at the end of the reaction was directly proportional to the amount of light emitted by the scintillant.
The N-terminal 6-histidine tagged HCV polymerase, derived from HCV Con1 strain, genotype 1b (NS5B570n-Con1) contains a 21 amino acid deletion at the C-terminus relative to the full-length HCV polymerase and was purified from E. coli strain BL21(DE) pLysS. The construct, containing the coding sequence of HCV NS5B Con1 (GenBank accession number AJ242654) was inserted into the plasmid construct pET17b, downstream of a T7 promoter expression cassette and transformed into E. coli. A single colony was grown overnight as a starter culture and later used inoculate 10 L of LB media supplemented with 100 μg/mL ampicillin at 37° C. Protein expression was induced by the addition of 0.25 mM isopropyl-β-D-thiogalactopyranoside (IPTG) when optical density at […] of the culture was between 0.6 and 0.8 and cells were harvested after 16 to 18 h at 30° C. NS5B570n-Con1 was purified to homogeneity using a three-step protocol including subsequent column chromatography on Ni-NTA, SP-Sepharose HP and Superdex 75 resins.
Each 50 μl enzymatic reaction contained 20 nM RNA template derived from the complementary sequence of the Internal Ribosome Entry Site (cIRES), 20 nM NS5B570n-Con1 enzyme, 0.5 μCi of tritiated UTP (Perkin Elmer catalog no. TRK-412; specific activity: 30 to 60 Ci/mmol; stock solution concentration from 7.5×10^-5 M to 20.6×10^-6 M), 1 μM each ATP, CTP, and GTP, 40 mM Tris-HCl pH 8.0, 40 mM NaCl, 4 mM DTT (dithiothreitol), 4 mM MgCl2, and 5 μl of compound serial diluted in DMSO. Reaction mixtures were assembled in 96-well filter plates (cat #MADVN0B, Millipore Co.) and incubated for 2 h at 30° C. Reactions were stopped by addition of 10% final (v/v) trichloroacetic acid and incubated for 40 min at 4° C. Reactions were filtered, washed with 8 reaction volumes of 10% (v/v) trichloroacetic acetic acid, 4 reaction volumes of 70% (v/v) ethanol, air dried, and 25 μl of scintillant (Microscint 20, Perkin-Elmer) was added to each reaction well.
The amount of light emitted from the scintillant was converted to counts per minute (CPM) on a Topcount® plate reader (Perkin-Elmer, Energy Range: Low, Efficiency Mode: Normal, Count Time: 1 min, Background Subtract: none, Cross talk reduction: Off).
Data was analyzed in Excel® (Microsoft®) and ActivityBase® (Idbs®). The reaction in the absence of enzyme was used to determine the background signal, which was subtracted from the enzymatic reactions. Positive control reactions were performed in the absence of compound, from which the background corrected activity was set as 100% polymerase activity. All data was expressed as a percentage of the positive control. The compound concentration at which the enzyme-catalyzed rate of RNA synthesis was reduced by 50% (IC50) was calculated by fitting
[formula] equation (i) to the data. where “Y” corresponds to the relative enzyme activity (in %), “% Min” is the residual relative activity at saturating compound concentration, “% Max” is the relative maximum enzymatic activity, “X” corresponds to the compound concentration, and “S” is the Hill coefficient (or slope).

| SMILES | pIC50 [1] | melting point |
| --- | --- | --- |
| COc1cc(C(=O)N2CCC(Oc3ccccc3)CC2)c(-c2ccc[nH]c2=O)cc1C(C)(C)C [Compound I-79] | 5.88 | – |
| COc1cc(C(=O)N2CCC(C#N)CC2)c(-c2ccc[nH]c2=O)cc1C(C)(C)C [Compound I-56, 1-[4-tert-Butyl-5-methoxy-2-(2-oxo-1,2-dihydro-pyridin-3-yl)-benzoyl]-piperidine-4-carbonitrite] | 6.36 | 213 to 215 °C |
| COc1cc(CN2CCOC2=O)c(-c2ccc[nH]c2=O)cc1C(C)(C)C [Compound I-74] | 7.25 | – |
| COc1cc(CN(CCO)S(C)(=O)=O)c(-c2ccc[nH]c2=O)cc1C(C)(C)C [Compound I-35, N-[4-tert-butyl-5-methoxy-2-(2-oxo-1,2-dihydro-pyridin-3-yl)-benzyl]-N-(2-hydroxy-ethyl)-methanesulfonamide] | 7.59 | 234.7 to 236 °C |
| CCC1(CC)C(=O)C=CN(Cc2cc(OC)c(C(C)(C)C)cc2-c2ccc[nH]c2=O)C1=O [Compound I-39] | 6.80 | 282 to 284 °C |
| COc1cc(C(=O)N2CCC(CO)C2)c(-c2ccc[nH]c2=O)cc1C(C)(C)C (stereo not drawn) [Compound I-73] | 5.79 | 201 to 203 °C |
| COc1cc(CN2C(=O)OC[C@H]2C(C)C)c(-c2ccc[nH]c2=O)cc1C(C)(C)C [Compound I-75] | 7.07 | – |
| COc1cc(CN2CCN(C)S2(=O)=O)c(-c2ccc[nH]c2=O)cc1C(C)(C)C [Compound I-64, 3-[5-tert-Butyl-4-methoxy-2-(5-methyl-1,1-dioxo-1λ^6-[1,2,5]thiadiazolidin-2-ylmethyl)-phenyl]-1H-pyridin-2-one] | 7.22 | 253 to 255 °C |
| COc1cc(CN(C)C(=O)c2cccc(NS(C)(=O)=O)c2)c(-c2ccc[nH]c2=O)cc1C(C)(C)C [Compound I-65, N-[4-tert-Butyl-5-methoxy-2-(2-oxo-1,2-dihydro-pyridin-3-yl)-benzyl]-3-methanesulfonylamino-N-methyl-benzamide] | 7.89 | 170 to 172 °C |
| COc1cc(CN(Cc2ccccc2)S(C)(=O)=O)c(-c2ccc[nH]c2=O)cc1C(C)(C)C [Compound I-26] | 6.84 | 229 to 230 °C |
| COc1cc(CN(C)S(C)(=O)=O)c(-c2ccc[nH]c2=O)cc1C(C)(C)C [Compound I-86] | 7.28 | 230 to 231 °C |
| COc1cc(CN(CC2CCN(C(C)=O)C2)S(C)(=O)=O)c(-c2ccc[nH]c2=O)cc1C(C)(C)C (stereo not drawn) [Compound I-48, N-(1-acetyl-pyrrolidin-3-ylmethyl)-N-[4-tert-butyl-5-methoxy-2-(2-oxo-1,2-dihydro-pyridin-3-yl)-benzyl]-methanesulfonamide] | 7.08 | 196 to 198 °C |
| COc1cc(CN2C(=O)OC[C@@H]2C(C)C)c(-c2ccc[nH]c2=O)cc1C(C)(C)C [Compound I-76, 3-[5-tert-Butyl-2-((S)-4-isopropyl-2-oxo-oxazolidin-3-ylmethyl)-4-methoxy-phenyl]-1H-pyridin-2-one] | 6.87 | – |
| COc1cc(CN(C(C)C)S(C)(=O)=O)c(-c2ccc[nH]c2=O)cc1C(C)(C)C [Compound I-28] | 7.48 | 285 to 286 °C |
| CC(C)(C)c1ccc(NS(C)(=O)=O)c(-c2ccc[nH]c2=O)c1 [Compound I-6, N-[4-tert-Butyl-2-(2-oxo-1,2-dihydro-pyridin-3-yl)-phenyl]-methane sulfonamide] | 5.41 | 219.3 to 233.8 °C |
| COc1cc(CO)c(-c2ccc[nH]c2=O)cc1C(C)(C)C [Compound I-2, 3-(5-tert-Butyl-2-hydroxymethyl-4-methoxy-phenyl)-1H-pyridin-2-one] | 6.00 | 215 to 216 °C |
| COc1cc(C(=O)N2CCN(C(C)=O)CC2)c(-c2ccc[nH]c2=O)cc1C(C)(C)C [Compound I-46] | 6.21 | 206 to 208 °C |
| COC(=O)CCc1cc(OC)c(C(C)(C)C)cc1-c1ccc[nH]c1=O [Compound I-3, 3-[4-tert-Butyl-5-methoxy-2-(2-oxo-1,2-dihydro-pyridin-3-yl)-phenyl]-propionic acid methyl ester] | 6.02 | – |

| SMILES | pIC50 [1] | melting point |
| --- | --- | --- |
| COc1cc(CN2CCCC2=O)c(-c2ccc[nH]c2=O)cc1C(C)(C)C [Compound I-18, 3-[5-tert-Butyl-4-methoxy-2-(2-oxo-pyrrolidin-1-ylmethyl)-phenyl]-1H-pyridin-2-one] | 6.92 | – |
| COc1cc(CC(N)=O)c(-c2ccc[nH]c2=O)cc1C(C)(C)C [Compound I-11, 2-[4-tert-Butyl-5-methoxy-2-(2-oxo-1,2-dihydro-pyridin-3-yl)-phenyl]-acetamide] | 6.36 | – |
| COc1cc(CS(C)(=O)=O)c(-c2ccc[nH]c2=O)cc1C(C)(C)C [Compound I-15, 3-(5-tert-Butyl-2-methanesulfonylmethyl-4-methoxy-phenyl)-1H-pyridin-2-one] | 6.13 | – |
| COc1cc(CNS(C)(=O)=O)c(-c2cc(F)c[nH]c2=O)cc1C(C)(C)C [Compound I-45] | 6.16 | – |
| COc1cc(CN(C(C)=O)c2ccccc2)c(-c2ccc[nH]c2=O)cc1C(C)(C)C [Compound I-89] | 6.97 | – |
| COc1cc(CC(=O)O)c(-c2ccc[nH]c2=O)cc1C(C)(C)C [Compound I-7, [4-tert-Butyl-5-methoxy-2-(2-oxo-1,2-dihydro-pyridin-3-yl)-phenyl]-acetic acid] | 6.81 | – |
| COc1cc(CNS(N)(=O)=O)c(-c2ccc[nH]c2=O)cc1C(C)(C)C [Compound I-50, N-[4-tert-Butyl-5-methoxy-2-(2-oxo-1,2-dihydro-pyridin-3-yl)-benzyl]-sulfamide] | 7.31 | – |
| CNC(=O)c1cc(OC)c(C(C)(C)C)cc1-c1ccc[nH]c1=O [Compound I-9, 4-tert-Butyl-5-methoxy-N-methyl-2-(2-oxo-1,2-dihydro-pyridin-3-yl)-benzamide] | 6.35 | – |
| COc1cc(C(=O)NCC#N)c(-c2ccc[nH]c2=O)cc1C(C)(C)C [Compound I-85] | 7.64 | – |
| COc1cc(CN(C)C(C)=O)c(-c2ccc[nH]c2=O)cc1C(C)(C)C [Compound I-14] | 6.82 | – |
| COc1cc(C(=O)N2CCOC(CO)C2)c(-c2ccc[nH]c2=O)cc1C(C)(C)C (stereo not drawn) [Compound I-78] | 5.85 | – |
| COc1cc(CNS(C)(=O)=O)c(-c2ccc[nH]c2=O)cc1C(C)(C)C [Compound I-13, N-[4-tert-Butyl-5-methoxy-2-(2-oxo-1,2-dihydro-pyridin-3-yl)-benzyl]-methane sulfonamide] | 7.19 | – |
| COc1cc(CCC(=O)O)c(-c2ccc[nH]c2=O)cc1C(C)(C)C [Compound I-1, 3-[4-tert-Butyl-5-methoxy-2-(2-oxo-1,2-dihydro-pyridin-3-yl)-phenyl]-propionic acid] | 6.56 | – |
| COc1cc(CNC(=O)c2ccc(N(S(C)(=O)=O)S(C)(=O)=O)cc2)c(-c2ccc[nH]c2=O)cc1C(C)(C)C [Compound I-44] | 6.11 | – |
| COc1cc(CNC(=O)c2cccnc2)c(-c2ccc[nH]c2=O)cc1C(C)(C)C [Compound I-49] | 7.59 | – |
| CNC(=O)Cc1cc(OC)c(C(C)(C)C)cc1-c1ccc[nH]c1=O [Compound I-10, 2-[4-tert-Butyl-5-methoxy-2-(2-oxo-1,2-dihydro-pyridin-3-yl)-phenyl]-N-methyl-acetamide] | 6.15 | – |
| COc1cc(CNC(C)=O)c(-c2ccc[nH]c2=O)cc1C(C)(C)C [Compound I-12] | 6.90 | – |

— US8232271B2 (priority 2008, dated 2012)
